# Legend:
# Assay in all cases: Kinase selectivity, DiscoverX scanMAX Kinase assay panel (% control)
# Type in all cases: binding
# [1] = target: T1, kinases of the scanMAX Kinase assay panel (Homo sapiens, UniProt P07949, V804M); settings: kinase RET(V804M); 1 uM in DMSO
# T1 construct: purchased DiscoverX Co. (contract measurement) scanMAX Kinase assay panel
# How it was run: (§1)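 Single-point screen, 1 uM cpd in DMSO. % ctrl = (cpd − pos ctrl)/(neg ctrl − pos ctrl)×100; pos ctrl = 0%, DMSO neg ctrl = 100%. Hit cutoff <35%.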
# [2] = target: T2, kinases of the scanMAX Kinase assay panel (Homo sapiens, UniProt P27448); settings: MARK3; 1 uM
# T2 construct: purchased DiscoverX Co. (contract measurement) scanMAX Kinase assay panel
# How it was run: as §1
# [3] = target: T3, kinases of the scanMAX Kinase assay panel (Homo sapiens, UniProt P42336, I800L); settings: PIK3CA(I800L); 1 uM
# T3 construct: purchased DiscoverX Co. (contract measurement) scanMAX Kinase assay panel
# How it was run: as §1
# [4] = target: T4, kinases of the scanMAX Kinase assay panel (Homo sapiens, UniProt P49759); settings: CLK1; 1 uM
# T4 construct: purchased DiscoverX Co. (contract measurement) scanMAX Kinase assay panel
# How it was run: as §1
# [5] = target: T5, kinases of the scanMAX Kinase assay panel (Homo sapiens, UniProt P49761); settings: CLK3; 1 uM
# T5 construct: purchased DiscoverX Co. (contract measurement) scanMAX Kinase assay panel
# How it was run: as §1
# [6] = target: T6, kinases of the scanMAX Kinase assay panel (Homo sapiens, UniProt P50613); settings: CDK7; 1 uM
# T6 construct: purchased DiscoverX Co. (contract measurement) scanMAX Kinase assay panel
# How it was run: as §1
# [7] = target: T7, kinases of the scanMAX Kinase assay panel (Homo sapiens, UniProt P53671); settings: LIMK2; 1 uM
# T7 construct: purchased DiscoverX Co. (contract measurement) scanMAX Kinase assay panel
# How it was run: as §1
# [8] = target: T8, kinases of the scanMAX Kinase assay panel (Homo sapiens, UniProt Q06418); settings: kinase TYRO3; 1 uM in DMSO
# T8 construct: purchased DiscoverX Co. (contract measurement) scanMAX Kinase assay panel
# T8 sequence (Q06418 41-890): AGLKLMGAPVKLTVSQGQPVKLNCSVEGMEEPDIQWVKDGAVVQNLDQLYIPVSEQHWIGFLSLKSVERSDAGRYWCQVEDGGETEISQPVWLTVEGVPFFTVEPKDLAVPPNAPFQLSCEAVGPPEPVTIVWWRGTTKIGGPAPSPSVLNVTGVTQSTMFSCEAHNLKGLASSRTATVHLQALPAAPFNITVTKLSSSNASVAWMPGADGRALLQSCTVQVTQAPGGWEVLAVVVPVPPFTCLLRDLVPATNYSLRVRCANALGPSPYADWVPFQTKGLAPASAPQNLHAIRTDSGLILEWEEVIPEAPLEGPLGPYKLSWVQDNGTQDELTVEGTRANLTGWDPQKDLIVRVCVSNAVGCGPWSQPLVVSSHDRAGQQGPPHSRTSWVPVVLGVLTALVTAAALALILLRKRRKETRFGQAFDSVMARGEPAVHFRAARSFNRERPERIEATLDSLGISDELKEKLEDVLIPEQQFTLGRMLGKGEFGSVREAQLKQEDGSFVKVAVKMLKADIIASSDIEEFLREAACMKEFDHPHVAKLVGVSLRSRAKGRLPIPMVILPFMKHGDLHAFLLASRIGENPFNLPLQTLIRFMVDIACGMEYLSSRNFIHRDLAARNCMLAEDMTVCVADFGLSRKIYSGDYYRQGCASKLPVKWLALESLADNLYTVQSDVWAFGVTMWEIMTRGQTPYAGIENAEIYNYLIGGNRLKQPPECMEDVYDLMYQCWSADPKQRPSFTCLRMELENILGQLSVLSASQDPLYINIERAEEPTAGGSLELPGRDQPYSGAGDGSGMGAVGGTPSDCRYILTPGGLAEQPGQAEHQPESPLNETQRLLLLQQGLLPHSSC
# How it was run: as §1
# [9] = target: T9, kinases of the scanMAX Kinase assay panel (Homo sapiens, UniProt Q5VT25); settings: MRCKA; 1 uM
# T9 construct: purchased DiscoverX Co. (contract measurement) scanMAX Kinase assay panel
# How it was run: as §1
# [10] = target: T10, kinases of the scanMAX Kinase assay panel (Homo sapiens, UniProt Q86V86); settings: PIM3; 1 uM
# T10 construct: purchased DiscoverX Co. (contract measurement) scanMAX Kinase assay panel
# How it was run: as §1
# [11] = target: T11, kinases of the scanMAX Kinase assay panel (Homo sapiens, UniProt Q8IW41); settings: MAPKAPK5; 1 uM
# T11 construct: purchased DiscoverX Co. (contract measurement) scanMAX Kinase assay panel
# T11 sequence (Q8IW41 1-473): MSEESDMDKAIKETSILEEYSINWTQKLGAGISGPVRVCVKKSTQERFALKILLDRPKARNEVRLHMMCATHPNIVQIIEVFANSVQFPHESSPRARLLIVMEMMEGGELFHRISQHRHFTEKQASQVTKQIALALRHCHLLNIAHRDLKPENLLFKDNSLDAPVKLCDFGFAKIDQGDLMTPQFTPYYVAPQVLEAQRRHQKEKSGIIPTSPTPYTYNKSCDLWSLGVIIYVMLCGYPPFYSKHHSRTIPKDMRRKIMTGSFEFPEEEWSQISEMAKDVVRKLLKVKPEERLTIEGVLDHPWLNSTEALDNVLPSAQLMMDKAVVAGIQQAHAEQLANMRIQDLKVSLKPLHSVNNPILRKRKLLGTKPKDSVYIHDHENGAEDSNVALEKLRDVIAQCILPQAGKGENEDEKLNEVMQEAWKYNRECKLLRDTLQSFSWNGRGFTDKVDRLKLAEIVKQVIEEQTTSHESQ
# How it was run: as §1
# [12] = target: T12, kinases of the scanMAX Kinase assay panel (Homo sapiens, UniProt Q9P0L2); settings: MARK1; 1 uM
# T12 construct: purchased DiscoverX Co. (contract measurement) scanMAX Kinase assay panel
# How it was run: as §1
# [13] = target: T13, kinases of the scanMAX Kinase assay panel (Homo sapiens, UniProt Q9P1W9); settings: PIM2; 1 uM
# T13 construct: purchased DiscoverX Co. (contract measurement) scanMAX Kinase assay panel
# How it was run: as §1
# T13 sequence (Q9P1W9 whole entry): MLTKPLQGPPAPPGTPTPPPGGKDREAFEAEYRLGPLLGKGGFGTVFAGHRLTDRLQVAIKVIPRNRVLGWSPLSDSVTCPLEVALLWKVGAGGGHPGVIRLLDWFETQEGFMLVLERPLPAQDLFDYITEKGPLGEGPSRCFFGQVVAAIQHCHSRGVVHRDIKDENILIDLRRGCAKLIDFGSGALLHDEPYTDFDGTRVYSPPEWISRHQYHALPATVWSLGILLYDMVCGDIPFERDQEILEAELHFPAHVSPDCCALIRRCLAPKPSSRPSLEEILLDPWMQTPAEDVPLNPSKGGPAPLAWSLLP
# T7 sequence (P53671 whole entry): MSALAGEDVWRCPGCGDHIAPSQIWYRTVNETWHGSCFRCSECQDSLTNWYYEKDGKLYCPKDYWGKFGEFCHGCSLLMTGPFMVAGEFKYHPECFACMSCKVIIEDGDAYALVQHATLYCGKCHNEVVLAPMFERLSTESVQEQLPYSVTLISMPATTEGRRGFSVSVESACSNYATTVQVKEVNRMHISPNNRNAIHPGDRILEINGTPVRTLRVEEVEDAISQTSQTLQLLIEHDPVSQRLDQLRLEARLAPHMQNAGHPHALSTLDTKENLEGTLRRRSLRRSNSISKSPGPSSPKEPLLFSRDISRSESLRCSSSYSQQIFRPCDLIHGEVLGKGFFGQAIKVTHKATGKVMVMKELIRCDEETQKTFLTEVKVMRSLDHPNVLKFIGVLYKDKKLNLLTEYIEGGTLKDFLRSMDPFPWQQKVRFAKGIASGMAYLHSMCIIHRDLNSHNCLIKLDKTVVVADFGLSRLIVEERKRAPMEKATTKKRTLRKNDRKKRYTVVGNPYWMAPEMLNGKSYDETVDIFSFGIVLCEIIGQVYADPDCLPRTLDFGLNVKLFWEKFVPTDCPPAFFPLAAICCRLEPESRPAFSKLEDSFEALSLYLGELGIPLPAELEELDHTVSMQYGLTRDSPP
# T6 sequence (P50613 whole entry): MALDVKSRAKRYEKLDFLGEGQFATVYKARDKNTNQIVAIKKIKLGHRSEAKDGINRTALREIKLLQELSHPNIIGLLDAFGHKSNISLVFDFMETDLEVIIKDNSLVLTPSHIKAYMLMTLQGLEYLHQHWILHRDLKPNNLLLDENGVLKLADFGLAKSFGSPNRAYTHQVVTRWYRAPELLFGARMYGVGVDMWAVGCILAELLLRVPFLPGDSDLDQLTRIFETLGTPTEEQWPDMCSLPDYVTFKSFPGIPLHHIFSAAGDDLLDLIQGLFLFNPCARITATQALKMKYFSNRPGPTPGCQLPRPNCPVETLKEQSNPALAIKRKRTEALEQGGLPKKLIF
# T3 sequence (P42336 whole entry I800L): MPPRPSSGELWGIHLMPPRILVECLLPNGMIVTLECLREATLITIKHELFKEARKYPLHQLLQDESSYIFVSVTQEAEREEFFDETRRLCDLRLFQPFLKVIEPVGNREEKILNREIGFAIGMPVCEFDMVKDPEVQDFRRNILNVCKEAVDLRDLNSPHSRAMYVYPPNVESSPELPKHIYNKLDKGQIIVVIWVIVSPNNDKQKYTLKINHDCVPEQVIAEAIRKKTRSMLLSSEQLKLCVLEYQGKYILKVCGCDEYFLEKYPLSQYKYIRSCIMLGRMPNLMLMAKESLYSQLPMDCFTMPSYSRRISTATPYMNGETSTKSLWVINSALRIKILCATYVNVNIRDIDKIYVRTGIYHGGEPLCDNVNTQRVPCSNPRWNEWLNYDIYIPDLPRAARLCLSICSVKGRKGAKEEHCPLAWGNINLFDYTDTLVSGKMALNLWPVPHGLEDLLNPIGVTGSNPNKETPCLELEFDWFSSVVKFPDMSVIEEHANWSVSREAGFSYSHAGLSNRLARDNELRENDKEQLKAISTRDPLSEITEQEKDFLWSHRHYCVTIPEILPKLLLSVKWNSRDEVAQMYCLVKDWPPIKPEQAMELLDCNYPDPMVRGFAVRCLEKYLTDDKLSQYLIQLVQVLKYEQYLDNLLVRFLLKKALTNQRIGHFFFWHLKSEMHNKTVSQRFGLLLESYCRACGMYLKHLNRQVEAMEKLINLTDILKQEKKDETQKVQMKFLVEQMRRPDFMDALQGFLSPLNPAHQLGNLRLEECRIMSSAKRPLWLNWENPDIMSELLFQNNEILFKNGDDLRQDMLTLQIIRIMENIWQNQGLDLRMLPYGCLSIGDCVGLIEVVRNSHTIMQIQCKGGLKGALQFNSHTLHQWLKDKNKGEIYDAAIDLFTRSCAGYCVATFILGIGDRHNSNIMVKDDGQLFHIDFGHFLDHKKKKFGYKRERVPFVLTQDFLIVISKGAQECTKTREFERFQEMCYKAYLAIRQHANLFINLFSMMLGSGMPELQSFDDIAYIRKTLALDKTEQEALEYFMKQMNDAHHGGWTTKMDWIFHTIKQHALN
# T9 sequence (Q5VT25 whole entry): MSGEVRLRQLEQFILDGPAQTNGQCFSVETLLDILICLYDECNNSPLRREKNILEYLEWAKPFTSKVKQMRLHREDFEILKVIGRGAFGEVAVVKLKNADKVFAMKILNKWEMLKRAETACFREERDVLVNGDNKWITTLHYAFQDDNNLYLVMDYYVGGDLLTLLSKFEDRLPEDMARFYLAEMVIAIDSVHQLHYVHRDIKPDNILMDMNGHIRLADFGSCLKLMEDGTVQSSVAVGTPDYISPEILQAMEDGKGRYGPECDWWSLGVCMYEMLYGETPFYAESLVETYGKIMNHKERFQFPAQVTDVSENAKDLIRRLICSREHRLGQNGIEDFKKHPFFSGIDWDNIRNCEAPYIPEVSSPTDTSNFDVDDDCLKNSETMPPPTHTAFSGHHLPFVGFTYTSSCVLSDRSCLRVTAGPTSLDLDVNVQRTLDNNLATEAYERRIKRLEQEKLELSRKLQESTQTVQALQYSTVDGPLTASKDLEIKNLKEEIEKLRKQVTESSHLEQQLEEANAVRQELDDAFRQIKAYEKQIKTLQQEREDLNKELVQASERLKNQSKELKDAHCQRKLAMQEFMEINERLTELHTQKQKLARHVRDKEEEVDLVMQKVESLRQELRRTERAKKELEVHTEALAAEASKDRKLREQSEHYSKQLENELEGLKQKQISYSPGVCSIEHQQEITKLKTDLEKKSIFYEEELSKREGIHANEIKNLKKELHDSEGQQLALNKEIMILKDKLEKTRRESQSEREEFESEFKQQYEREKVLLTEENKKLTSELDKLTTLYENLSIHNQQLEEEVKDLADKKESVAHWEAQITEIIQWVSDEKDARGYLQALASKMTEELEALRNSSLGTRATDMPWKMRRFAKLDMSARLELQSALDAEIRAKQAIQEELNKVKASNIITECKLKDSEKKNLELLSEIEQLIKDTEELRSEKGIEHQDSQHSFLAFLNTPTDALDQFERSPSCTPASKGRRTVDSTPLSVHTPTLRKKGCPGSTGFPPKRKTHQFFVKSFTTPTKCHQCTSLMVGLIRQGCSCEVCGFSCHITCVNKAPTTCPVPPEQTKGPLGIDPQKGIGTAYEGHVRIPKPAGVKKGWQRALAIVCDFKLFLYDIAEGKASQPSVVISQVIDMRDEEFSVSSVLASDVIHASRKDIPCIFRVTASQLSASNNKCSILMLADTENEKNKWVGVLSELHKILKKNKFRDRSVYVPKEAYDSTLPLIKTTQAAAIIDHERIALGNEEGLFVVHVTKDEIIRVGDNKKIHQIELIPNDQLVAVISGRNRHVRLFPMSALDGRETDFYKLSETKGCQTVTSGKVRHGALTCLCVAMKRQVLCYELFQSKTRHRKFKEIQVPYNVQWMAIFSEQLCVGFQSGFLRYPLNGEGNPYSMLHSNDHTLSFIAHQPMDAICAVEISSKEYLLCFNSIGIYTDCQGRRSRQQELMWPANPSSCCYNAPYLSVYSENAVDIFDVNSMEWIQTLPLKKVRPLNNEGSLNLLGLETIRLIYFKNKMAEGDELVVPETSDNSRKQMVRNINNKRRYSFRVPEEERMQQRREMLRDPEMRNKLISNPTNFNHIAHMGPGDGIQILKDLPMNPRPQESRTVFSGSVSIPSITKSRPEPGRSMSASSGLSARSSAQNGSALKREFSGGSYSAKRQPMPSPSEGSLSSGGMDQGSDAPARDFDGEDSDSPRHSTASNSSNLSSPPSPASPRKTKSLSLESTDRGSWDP
# T4 sequence (P49759 whole entry): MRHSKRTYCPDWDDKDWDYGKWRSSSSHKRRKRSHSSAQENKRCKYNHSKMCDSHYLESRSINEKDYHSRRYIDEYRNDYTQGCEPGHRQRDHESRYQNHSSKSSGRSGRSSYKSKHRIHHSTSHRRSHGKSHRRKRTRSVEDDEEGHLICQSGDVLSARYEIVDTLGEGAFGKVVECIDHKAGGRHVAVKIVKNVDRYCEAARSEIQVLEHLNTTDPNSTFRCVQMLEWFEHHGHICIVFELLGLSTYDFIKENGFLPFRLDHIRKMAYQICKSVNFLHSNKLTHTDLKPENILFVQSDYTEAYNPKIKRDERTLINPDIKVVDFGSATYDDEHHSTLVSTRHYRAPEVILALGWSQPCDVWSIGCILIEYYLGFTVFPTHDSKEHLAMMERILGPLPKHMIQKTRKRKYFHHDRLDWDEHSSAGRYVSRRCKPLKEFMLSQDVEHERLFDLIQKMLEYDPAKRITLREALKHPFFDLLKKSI
# T5 sequence (P49761 whole entry): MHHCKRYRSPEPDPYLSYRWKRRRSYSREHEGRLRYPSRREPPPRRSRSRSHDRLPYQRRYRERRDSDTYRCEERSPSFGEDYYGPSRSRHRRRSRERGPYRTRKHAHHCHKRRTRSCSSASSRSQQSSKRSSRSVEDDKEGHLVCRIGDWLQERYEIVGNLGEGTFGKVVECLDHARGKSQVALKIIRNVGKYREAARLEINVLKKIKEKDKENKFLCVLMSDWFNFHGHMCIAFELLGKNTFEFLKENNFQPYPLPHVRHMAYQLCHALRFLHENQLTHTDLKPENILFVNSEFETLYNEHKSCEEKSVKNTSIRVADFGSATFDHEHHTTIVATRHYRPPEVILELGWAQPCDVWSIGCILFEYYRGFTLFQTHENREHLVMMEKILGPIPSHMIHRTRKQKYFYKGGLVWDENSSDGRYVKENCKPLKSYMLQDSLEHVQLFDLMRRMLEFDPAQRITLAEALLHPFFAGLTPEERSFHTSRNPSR
SMILES,remaining binding at 1 µM [1] [%],remaining binding at 1 µM [2] [%],remaining binding at 1 µM [3] [%],remaining binding at 1 µM [4] [%],remaining binding at 1 µM [5] [%],remaining binding at 1 µM [6] [%],remaining binding at 1 µM [7] [%],remaining binding at 1 µM [8] [%],remaining binding at 1 µM [9] [%],remaining binding at 1 µM [10] [%],remaining binding at 1 µM [11] [%],remaining binding at 1 µM [12] [%],remaining binding at 1 µM [13] [%]
"CC1(Nc2nc(Nc3cnn([C@H]4CCN(C5COC5)C[C@@H]4F)c3Cl)nc3[nH]cc(C#N)c23)CC1 [Example 52, 2-((5-chloro-1-((3S,4S)-3-fluoro-1-(oxetane-3-yl)piperidine-4-yl)-1H-pyrazole-4-yl)amino)((1-methylcyclopropyl)amino)-7H-pyrrolo[2,3-d]pyrimidine-5-carbonitrile]",0,29,0.1,0.6,27,19,65,45,100,49,72,36,63
"CNc1nc(Nc2ccc(C(=O)N3CCOCC3)cc2OC)nc2[nH]cc(C#N)c12 [Example 1, 2-((2-methoxy-4-(morpholine-4-carbonyl)phenyl)amino)-4-(methylamino)-7H-pyrrolo[2,3-d]pyrimidine-5-carbonitrile]",89,100,100,1.8,70,67,94,100,100,98,16,91,78
"CCNc1nc(Nc2ccc(C(=O)N3CCC(N4CCOCC4)CC3)cc2OC)nc2[nH]cc(C(F)(F)F)c12 [Example 104, (4-((4-(ethylamino)-5-(trifluoromethyl)-7H-pyrrolo[2,3-d]pyrimidine-2-yl)amino)-3-methoxyphenyl)(4-morpholinopiperidine-1-yl)methanone]",87,86,72,0.15,4,48,99,100,100,73,51,100,100

# Reference: US11208412B2 (DAEGU-GYEONGBUK MEDICAL INNOVATION FOUNDATION, priority 2017, dated 2021)
